Source: patent US10030225B2, “Cell culture media” (Merck Patent GmbH, priority 2012, dated 2018)
Where a name gives a salt, the structure may show the parent alone.

How the values were obtained:
Solubility in water = settings: for solubility (in words): comparison with tyrosine, refers to table 1; for solubility at 20° C. / solubility at 25° C. / solubility at 30° C.: in water
Recombinant CHO cells [1] = assay: Fed batch process with neutral pH feed containing phospho-Tyr salts, 30 mL spin tubes; assay type: cell-based; settings: 30 mM in feed at pH 7.0; control tyrosine 2Na+ and Cysteine in separate feed at pH 11
Experimental: FIGS. 5 and 6 show the viable cell density and IgG concentration over time in a fed batch process. Recombinant CHO cells are grown in fully chemically defined basal media and a feed containing phospho-Tyr salts at pH 7.0 is added on day 3; 5, 7 and 9 (addition of % v/v of 3%; 6% 6% 6%). […]. In these cases, Cysteine is still added as a separate feed at pH 11.
The process is performed in 30 mL spin tubes at 37° C., 5% CO2, agitation 320 rpm. For control, according to the state of the art, tyrosine 2Na+ and Cysteine are solubilized at pH 11 in a separate feed and added at day 3; 5; 7; 9 in %(V/V) of 0.3%, 0.6%, 0.6% and 0.6%.
The glucose concentration is measured every day and adjusted accordingly to maintain a concentration>2 g/L

cells [2] = assay: Batch experiment in chemically defined medium where Cysteine was replaced by S-sulfocysteine sodium salt; assay type: cell-based; settings: 1.5 and 3 mM, equivalent concentration to Cysteine
Experimental: Batch experiment in chemically defined medium where Cysteine was replaced by S-sulfocysteine sodium salt (equivalent concentration). The CDM powder used as basis was depleted in Cysteine and Cystine and supplemented during reconstitution with Cysteine for the control conditions (1.5 and 3 mM) or with S-sulfocysteine sodium salt for the test conditions (1.5 and 3 mM).

Recombinant CHO cells [3] = assay: Fed batch process with feed containing S-sulfocysteine and PTyr 2Na+ at pH 7.0, 1.2 L bioreactors; assay type: cell-based; settings: main feed pH 7.0, in combination with PTyr 2Na+; control tyrosine 2Na+ and Cysteine at pH 11
Experimental: FIGS. 7 and 8 show the viable cell density and IgG concentration over time in a fed batch process. Recombinant CHO cells are grown in fully chemically defined basal media and a feed containing both S-sulfocysteine and PTyr 2Na+ at pH 7.0. Feed is added on day 3; 5, 7, 9 and 14 (addition of % v/v of 3%; 6% 6% 6%, 3%). The process is performed in 1.2 L bioreactors at 37° C., pH 7.0, 50% dissolved oxygen, agitation 140 rpm. For control, according to the state of the art, tyrosine 2Na+ and Cysteine are solubilized at pH 11 in a separate feed and added at day 3; 5; 7; 9, 14 in %(V/V) of 0.3%, 0.6%, 0.6%, 0.6%, 0.3%. The glucose concentration is measured every day and adjusted accordingly to maintain a concentration>2 g/L

cells [4] = assay: Batch experiment in chemically defined medium where tyrosine was replaced by PTyr salts; assay type: cell-based
Source text: Batch experiment in chemically defined medium where tyrosine was replaced by PTyr salts. PTyr means (S)-2-Amino-3-(4-phosphonooxy-phenyl)-propionic-acid salt.

## N[C@@H](Cc1ccc(OP(=O)([O-])O)cc1)C(=O)O.[Na+] [D3]
Solubility in water
  solubility (in words): higher solubility
  solubility at 20° C.: 5.5%
  solubility at 25° C.: 5.3%
  solubility at 30° C.: 11.4%

## N[C@@H](Cc1ccc(OP(=O)([O-])[O-])cc1)C(=O)O.[Na+].[Na+] [D4]
Solubility in water
  solubility (in words): very good solubility
  solubility at 20° C.: 9.8%
  solubility at 25° C.: 10.1%
  solubility at 30° C.: 9.2%
Recombinant CHO cells [1]
  impact on growth (viable cell density): no negative impact
  impact on titer (IgG concentration): no negative impact

## N[C@@H](Cc1ccc(OP(=O)(O)O)cc1)C(=O)O [PTyr Magnesium salt, (S)-2-Amino-3-(4-phosphonooxy-phenyl)-propionic-acid 2:1-magnesium salt]
Recombinant CHO cells [1]
  impact on growth (viable cell density): no negative impact
  impact on titer (IgG concentration): no negative impact

## N[C@@H](Cc1ccc(OP(=O)([O-])O)cc1)C(=O)O.[K+] [PTyr Potassium salt, (S)-2-Amino-3-(4-phosphonooxy-phenyl)-propionic-acid mono potassium salt]
Recombinant CHO cells [1]
  impact on growth (viable cell density): no negative impact
  impact on titer (IgG concentration): no negative impact

## N[C@H](CSS(=O)(=O)[O-])C(=O)[O-].[Na+].[Na+] [S-sulfocysteine sodium salt, (S)-2-amino-3-sulfosulfanylpropanoic acid sodium salt]
Cells [2]
  cell growth versus Cysteine control: comparable growth
Recombinant CHO cells [3]
  growth (viable cell density) in comparison to the control: extended growth
  titer (IgG concentration) in comparison to the control: significant increase

## (S)-2-Amino-3-(4-phosphonooxy-phenyl)-propionic-acid salt [PTyr]
Cells [4]; PTyr 4.5 mM in the CDM versus 1 mM tyrosine in the control
  maximum viable cell density versus control: even higher
Cells [4]; PTyr 4.5 mM in the CDM versus control
  extended growth: 2 days
Cells [4]; PTyr at the same concentration as Tyrosine in the medium (1 mM in the control)
  cell growth: cells didn't grow
